Data from ChEMBL document CHEMBL5257099, “Design, synthesis and bioactivity evaluations of 8-substituted-quinoline-2-carboxamide derivatives as novel histone deacetylase (HDAC) inhibitors” (Bioorg Med Chem, 2023).

Columns and labels:
[1] = tested on: SK-N-BE(2); experiment: cells; type: functional, cell-based; details: Homo sapiens, SKNBE2, 48 h
Description: Antiproliferative activity against human SK-N-BE(2) cells assessed as inhibition of cell growth incubated for 48 hrs by CCK-8 assay

[2] = target: Histone deacetylase 2 (Homo sapiens, UniProt Q92769); experiment: Inhibition of HDAC2 (unknown origin) using Boc-Lys(Ac)-AMC or Boc-Lys(Tfa)-AMC as substrate preincubated for 5 mins followed by substrate addition and measured after 1 hr by fluorescence assay
[3] = cells; type: functional, cell-based; details: Homo sapiens, KM3, 48 h
Description: Antiproliferative activity against human KM3 cells assessed as inhibition of cell growth incubated for 48 hrs by CCK-8 assay

[4] = tested on: Jurkat; experiment: Antiproliferative activity against human Jurkat cells assessed as inhibition of cell growth incubated for 48 hrs by CCK-8 assay; type: functional, cell-based
[5] = target: T1, Protein deacetylase HDAC6 (Homo sapiens, UniProt Q9UBN7); experiment: Inhibition of HDAC6 (unknown origin) using Boc-Lys(Ac)-AMC or Boc-Lys(Tfa)-AMC as substrate preincubated for 5 mins followed by substrate addition and measured after 2 hrs by fluorescence assay
T1 sequence (Q9UBN7 whole entry): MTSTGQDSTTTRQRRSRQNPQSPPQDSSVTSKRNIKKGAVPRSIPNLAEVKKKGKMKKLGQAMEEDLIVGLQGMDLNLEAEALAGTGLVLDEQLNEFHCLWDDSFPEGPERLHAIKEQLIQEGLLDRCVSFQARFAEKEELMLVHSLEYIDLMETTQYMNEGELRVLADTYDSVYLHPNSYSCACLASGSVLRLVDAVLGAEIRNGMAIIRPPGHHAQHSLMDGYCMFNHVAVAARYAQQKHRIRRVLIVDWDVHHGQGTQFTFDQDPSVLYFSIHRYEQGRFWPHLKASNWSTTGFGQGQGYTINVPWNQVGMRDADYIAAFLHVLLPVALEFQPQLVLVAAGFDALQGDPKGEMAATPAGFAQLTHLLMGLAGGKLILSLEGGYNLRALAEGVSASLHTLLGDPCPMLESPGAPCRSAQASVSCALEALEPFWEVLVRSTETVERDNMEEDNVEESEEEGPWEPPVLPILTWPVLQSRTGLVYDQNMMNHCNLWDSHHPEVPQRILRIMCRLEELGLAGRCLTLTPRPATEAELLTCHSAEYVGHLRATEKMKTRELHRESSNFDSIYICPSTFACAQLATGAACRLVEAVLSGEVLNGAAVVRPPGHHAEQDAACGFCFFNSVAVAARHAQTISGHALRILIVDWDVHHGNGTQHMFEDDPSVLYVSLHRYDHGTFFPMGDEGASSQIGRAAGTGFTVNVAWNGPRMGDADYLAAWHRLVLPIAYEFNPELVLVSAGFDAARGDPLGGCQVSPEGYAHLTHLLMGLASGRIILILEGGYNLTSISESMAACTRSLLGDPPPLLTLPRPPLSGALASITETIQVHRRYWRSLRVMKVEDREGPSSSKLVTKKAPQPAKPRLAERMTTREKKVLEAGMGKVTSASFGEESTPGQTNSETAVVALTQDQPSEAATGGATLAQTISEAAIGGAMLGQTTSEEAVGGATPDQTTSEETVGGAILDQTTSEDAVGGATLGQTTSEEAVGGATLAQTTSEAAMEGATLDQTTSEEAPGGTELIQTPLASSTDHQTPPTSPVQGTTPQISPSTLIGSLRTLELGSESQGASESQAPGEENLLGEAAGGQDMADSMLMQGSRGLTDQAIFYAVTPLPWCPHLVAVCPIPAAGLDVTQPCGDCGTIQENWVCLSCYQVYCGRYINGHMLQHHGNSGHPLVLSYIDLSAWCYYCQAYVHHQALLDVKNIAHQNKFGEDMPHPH

[6] = target: Histone deacetylase 1 (Homo sapiens, UniProt Q13547); experiment: Inhibition of HDAC1 (unknown origin) using Boc-Lys(Ac)-AMC or Boc-Lys(Tfa)-AMC as substrate preincubated for 5 mins followed by substrate addition and measured after 2 hrs by fluorescence assay
[7] = target: T2, Histone deacetylase 8 (Homo sapiens, UniProt Q9BY41); experiment: Inhibition of HDAC8 (unknown origin) using Boc-Lys(Ac)-AMC or Boc-Lys(Tfa)-AMC as substrate preincubated for 5 mins followed by substrate addition and measured after 1 hr by fluorescence assay
T2 sequence (Q9BY41 whole entry): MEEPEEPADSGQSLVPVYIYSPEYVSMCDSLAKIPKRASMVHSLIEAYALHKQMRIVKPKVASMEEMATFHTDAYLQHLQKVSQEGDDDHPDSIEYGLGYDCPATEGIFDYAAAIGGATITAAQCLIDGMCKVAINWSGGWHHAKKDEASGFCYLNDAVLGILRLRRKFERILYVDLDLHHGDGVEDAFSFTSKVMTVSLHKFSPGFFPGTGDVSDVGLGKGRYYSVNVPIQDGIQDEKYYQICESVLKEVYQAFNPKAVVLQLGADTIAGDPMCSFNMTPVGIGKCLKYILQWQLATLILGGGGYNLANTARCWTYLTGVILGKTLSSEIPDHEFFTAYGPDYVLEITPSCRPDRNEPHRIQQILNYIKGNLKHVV

[8] = in vitro; details: human, HUVEC cells
Description: Cytotoxicity against HUVEC cells assessed as inhibition of cell growth incubated for 48 hrs by CCK-8 assay

[9] = tested on: PC-3; experiment: cells; type: functional, cell-based; details: Homo sapiens, PC-3, 48 h
Description: Antiproliferative activity against human PC-3 cells assessed as inhibition of cell growth incubated for 48 hrs by CCK-8 assay

[10] = target: Histone deacetylase; experiment: Inhibition of HDAC in human HeLa nuclear extract using Boc-Lys(Ac)-AMC or Boc-Lys(Tfa)-AMC as substrate preincubated for 5 mins followed by substrate addition and measured after 30 mins by fluorescence assay; type: subcellular, Nucleus
[11] = Metabolic stability in liver microsomes (unknown origin) at 2 mg/ml incubated for 120 mins under shaking condition in presence of NADPH by HPLC method; type: ADME, Microsome; details: 2 h

Chain of Histone deacetylase 2 (Q92769 whole entry): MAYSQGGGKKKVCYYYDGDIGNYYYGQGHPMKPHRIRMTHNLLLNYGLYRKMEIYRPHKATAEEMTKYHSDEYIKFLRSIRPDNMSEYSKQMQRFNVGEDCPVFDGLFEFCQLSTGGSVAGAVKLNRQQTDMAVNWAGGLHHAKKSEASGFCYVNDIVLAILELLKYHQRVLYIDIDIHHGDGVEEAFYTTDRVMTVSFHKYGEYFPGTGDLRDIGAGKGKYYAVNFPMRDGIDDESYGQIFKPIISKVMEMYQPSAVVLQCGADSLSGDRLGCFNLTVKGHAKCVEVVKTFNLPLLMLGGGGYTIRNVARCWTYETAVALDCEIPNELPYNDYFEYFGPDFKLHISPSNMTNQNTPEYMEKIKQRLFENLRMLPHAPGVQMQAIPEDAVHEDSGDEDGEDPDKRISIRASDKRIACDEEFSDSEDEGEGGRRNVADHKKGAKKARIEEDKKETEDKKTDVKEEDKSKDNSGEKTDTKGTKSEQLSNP
Chain of Histone deacetylase 1 (Q13547 whole entry): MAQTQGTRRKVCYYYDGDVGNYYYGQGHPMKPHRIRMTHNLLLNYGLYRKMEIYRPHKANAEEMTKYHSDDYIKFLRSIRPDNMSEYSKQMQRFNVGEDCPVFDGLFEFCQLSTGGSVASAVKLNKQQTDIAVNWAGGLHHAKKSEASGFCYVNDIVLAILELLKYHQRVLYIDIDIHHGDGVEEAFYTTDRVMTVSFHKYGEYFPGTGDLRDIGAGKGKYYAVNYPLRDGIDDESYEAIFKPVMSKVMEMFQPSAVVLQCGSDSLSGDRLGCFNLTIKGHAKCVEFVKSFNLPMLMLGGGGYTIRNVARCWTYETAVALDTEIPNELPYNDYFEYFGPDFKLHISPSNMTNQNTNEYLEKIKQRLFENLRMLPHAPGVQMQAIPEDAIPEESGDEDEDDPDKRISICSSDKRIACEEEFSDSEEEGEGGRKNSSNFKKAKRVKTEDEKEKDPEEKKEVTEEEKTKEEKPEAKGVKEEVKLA

Work on `COc1ccc(COc2cccc3ccc(C(=O)NCc4ccc(C(=O)NO)cc4)nc23)cc1` yielded an IC50 [1] of 4260 nM, an IC50 [2] of 72 nM and an IC50 [3] of 1460 nM. It also gave an IC50 [4] of 4850 nM, an IC50 [5] of 61 nM and an IC50 [6] of 130 nM. It also gave an IC50 [7] of over 10000 nM, an IC50 at 48 h [8] of over 50000 nM and an IC50 [9] of 5900 nM. For the same molecule, the IC50 [10] was 41 nM.

`O=C(NO)c1ccc(CNC(=O)c2ccc3cccc(OCc4ccccc4)c3n2)cc1` gave an IC50 [10] of 62 nM.

With `CC(C)(C)c1ccc(COc2cccc3ccc(C(=O)NCCCCCC(=O)NO)nc23)cc1` the IC50 [10] was 187 nM.

In the case of `COc1cccc2ccc(C(=O)NCc3ccc(C(=O)NO)cc3)nc12`, the Stability [11] is reported as “Stable”, the IC50 [1] is reported as 1210 nM and the IC50 [2] is reported as 26 nM. The IC50 [3] was 500 nM, the IC50 [4] was 2900 nM and the IC50 [5] was 166 nM. For the same molecule, the IC50 [6] was 98 nM, the IC50 [7] was over 10000 nM and the IC50 at 48 h [8] was over 50000 nM. The IC50 [9] was 2790 nM and the IC50 [10] was 50 nM.

In the case of `COc1ccc(COc2cccc3ccc(C(=O)NCCCCCC(=O)NO)nc23)cc1`, the IC50 [10] is reported as 127 nM.

`Cc1ccc(COc2cccc3ccc(C(=O)NCc4ccc(C(=O)NO)cc4)nc23)cc1` showed an IC50 [1] of 3570 nM, an IC50 [2] of 43 nM and an IC50 [3] of 1670 nM. For the same molecule, the IC50 [4] was 4430 nM, the IC50 [5] was 101 nM and the IC50 [6] was 132 nM. For the same molecule, the IC50 [7] was over 10000 nM, the IC50 at 48 h [8] was over 50000 nM and the IC50 [9] was 4090 nM. For the same molecule, the IC50 [10] was 46 nM.

In the case of `O=C(CCCCCNC(=O)c1ccc2cccc(OCc3ccccc3)c2n1)NO`, the IC50 [10] is reported as 168 nM.

With `O=C(NO)c1ccc(CNC(=O)c2ccc3cccc(OCc4ccc(F)cc4)c3n2)cc1` the IC50 [1] was 3770 nM, the IC50 [2] was 18 nM and the IC50 [3] was 2830 nM. It also gave an IC50 [4] of 4260 nM, an IC50 [5] of 38 nM and an IC50 [6] of 70 nM. For the same molecule, the IC50 [7] was over 10000 nM, the IC50 at 48 h [8] was over 50000 nM and the IC50 [9] was 5660 nM. For the same molecule, the IC50 [10] was 33 nM.

`O=C(CCCCCNC(=O)c1ccc2cccc(OCc3ccc(Br)cc3)c2n1)NO` gave an IC50 [10] of 168 nM.

`O=C(NO)c1ccc(CNC(=O)c2ccc3cccc(OCc4ccc(Br)cc4)c3n2)cc1` gave an IC50 [10] of 54 nM.

`O=C(CCCCCCC(=O)Nc1ccccc1)NO` [VORINOSTAT] gave an IC50 [4] of 3620 nM.
